Some test systems named below: CAKI-1; EKVX; HCT-116; HCT-15; HL-60; Hs-578T; MCF7; NCI-H226; NCI/ADR-RES; OVCAR-4; RXF 393; SF-268; SK-OV-3; TK-10; UACC-257; UACC-62; CCRF-CEM; HT-29; PC-3.
Holding throughout (assay): NCI anticancer screen, dose series, 48 h

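Dose response: 5 concentrations. Exposure: 48 h. Format: 96-well plates. Endpoint: linear interpolation; highest concentration if not reached. Abbreviation: GI50, concentration required for 50% inhibition of growth.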 The source made the active and inactive calls. Cut-off read from the data, not from the text of the source: active = GI50 up to about 1.1 µM and inactive = higher. Where only a bound is given, the exact number is not on record here.

Consider `COc1cc(C(=O)Nc2nnc(S(N)(=O)=O)s2)cc(OC)c1OC`, for which the GI50 in the test on CAKI-1 was > 100 µM (inactive); in the test on EKVX it was > 100 µM (inactive); with HCT-116, > 100 µM (inactive); in the test on HCT-15, over 100 µM; in the test with HL-60, > 100 µM (inactive); in the test on Hs-578T it was > 100 µM (inactive). Further, the GI50 in the test with MCF7, in the test on NCI-H226, with NCI/ADR-RES, in the test on OVCAR-4, in the test on RXF 393 and with SF-268 was > 100 µM (inactive) throughout. The GI50 in the test on SK-OV-3, in the test on TK-10, in the test with UACC-257 and with UACC-62 was > 100 µM (inactive) in each case.
For `COc1ccc(C2CC(c3ccccc3)=Nc3c(-c4ccccc4)nnn32)cc1` (configuration not stated), the GI50 in the test on CAKI-1 was 98.4 µM (inactive); with CCRF-CEM it was > 100 µM (inactive); in the test with HCT-116 it was 35.5 µM (inactive); in the test on HCT-15, 9.06 µM; with HL-60 it was > 100 µM (inactive); in the test with HT-29, > 100 µM (inactive). For the same compound, the GI50 is 51.2 µM (inactive) with Hs-578T; > 100 µM (inactive) in the test on MCF7; > 100 µM (inactive) in the test with NCI-H226; > 100 µM (inactive) in the test on NCI/ADR-RES; 72.6 µM (inactive) in the test on PC-3; > 100 µM (inactive) in the test on SF-268. Further, the GI50 in the test with SK-OV-3 is > 100 µM (inactive); in the test with UACC-257 it was > 100 µM (inactive); in the test with UACC-62 it was 55.7 µM (inactive).
Turning to `Cc1[nH]n(-c2ccccc2)c(=O)c1C(N(CCc1ccccc1)C1=NCC(C)S1)(C(F)(F)F)C(F)(F)F` (configuration not stated), the GI50 was 13.5 µM (inactive) with CAKI-1; 19.3 µM (inactive) in the test with CCRF-CEM; 11.3 µM (inactive) in the test with EKVX; 10.1 µM (inactive) in the test on HCT-116; 13.3 µM in the test with HCT-15; 7.69 µM (inactive) with HL-60. In addition, the GI50 with HT-29 was 17.8 µM (inactive); in the test with Hs-578T it was 20.5 µM (inactive); in the test on MCF7 it was 10.7 µM (inactive); in the test with NCI-H226, 6.28 µM (inactive); with NCI/ADR-RES, 18.9 µM (inactive); in the test on OVCAR-4, 10.8 µM (inactive). The GI50 in the test on PC-3 was 16.1 µM (inactive); in the test with SF-268 it was 21.4 µM (inactive); in the test with SK-OV-3 it was 25.4 µM (inactive); in the test with TK-10, 16.3 µM (inactive); in the test on UACC-257 it was 16 µM (inactive); with UACC-62 it was 8.71 µM (inactive).
With `Cc1ccc(C(=O)N/N=C(\N=N\c2ccccc2Cl)c2ccc(N(C)C)cc2)cc1`, the GI50 was 30.5 µM (inactive) in the test on CAKI-1; 16.6 µM (inactive) with CCRF-CEM; 27.2 µM (inactive) in the test with EKVX; 29.2 µM (inactive) with HCT-116; 30.6 µM in the test with HCT-15; 14.1 µM (inactive) in the test on HL-60. For the same compound, the GI50 was 33.1 µM (inactive) with HT-29; > 100 µM (inactive) in the test on Hs-578T; 28.2 µM (inactive) in the test on MCF7; 60.8 µM (inactive) with NCI-H226; 27.3 µM (inactive) with NCI/ADR-RES; 7.33 µM (inactive) in the test on OVCAR-4. In addition, the GI50 in the test on PC-3 is 49 µM (inactive); in the test with SF-268, > 100 µM (inactive); in the test with SK-OV-3, 20.4 µM (inactive); with TK-10, > 100 µM (inactive); in the test with UACC-257, 27.5 µM (inactive); in the test with UACC-62, 4.55 µM (inactive).
Turning to `c1ccc2c(c1)SC1=Nc3sc4ccccc4[n+]3CN12`, the GI50 in the test with CAKI-1 was 14.2 µM (inactive); in the test on CCRF-CEM it was 16.6 µM (inactive); with EKVX it was 2.15 µM (inactive); with HCT-116, 18.5 µM (inactive); in the test on HCT-15 it was 40.2 µM; with HL-60, 32.1 µM (inactive). Further, the GI50 was 12.6 µM (inactive) in the test on HT-29; 13.7 µM (inactive) in the test on Hs-578T; 16.4 µM (inactive) in the test on MCF7; 30.9 µM (inactive) with NCI/ADR-RES; 24.8 µM (inactive) in the test with PC-3; 17.4 µM (inactive) in the test with SF-268. The GI50 in the test with SK-OV-3 was 17.2 µM (inactive); in the test on TK-10, 14.8 µM (inactive); in the test with UACC-257, 30.7 µM (inactive); in the test on UACC-62, 15.5 µM (inactive).
Turning to `c1cc2cc(c1)CN1CCNCCN(CCNCC1)Cc1cccc(c1)CN1CCNCCN(CCNCC1)C2`, the GI50 was > 100 µM (inactive) in the test on EKVX; > 100 µM (inactive) in the test with HCT-116; over 100 µM in the test with HCT-15; > 100 µM (inactive) with HT-29; > 100 µM (inactive) in the test on Hs-578T; > 100 µM (inactive) in the test on MCF7. The GI50 with NCI/ADR-RES, in the test on OVCAR-4, with PC-3, with SF-268, in the test on SK-OV-3 and in the test with TK-10 was > 100 µM (inactive) throughout. Moreover, the GI50 in the test on UACC-257 and with UACC-62 was > 100 µM (inactive) each time.
As to `C/C(=N\O)c1cccc(Nc2c3ccccc3nc3occc23)c1`, the GI50 in the test with CAKI-1 is 1.96 µM (inactive); in the test with CCRF-CEM, 3.4 µM (inactive); in the test on EKVX, 5.86 µM (inactive); in the test with HCT-116 it was 3.52 µM (inactive); with HCT-15 it was 3.38 µM; with HL-60, 4.74 µM (inactive). Moreover, the GI50 in the test on HT-29 is 9.1 µM (inactive); in the test with Hs-578T, 8.61 µM (inactive); in the test with MCF7, 2.39 µM (inactive); in the test on NCI-H226, 14.1 µM (inactive); with NCI/ADR-RES it was 2.3 µM (inactive); in the test with OVCAR-4, 1.8 µM (inactive). The GI50 with PC-3 was 17.7 µM (inactive); with SF-268, 13.3 µM (inactive); in the test on SK-OV-3, 10.4 µM (inactive); in the test on TK-10, 10.1 µM (inactive); in the test with UACC-257 it was 7.03 µM (inactive); in the test with UACC-62, 3.42 µM (inactive).
On to `COc1cc2nc(Cl)nc(NS(=O)(=O)c3cc4ccccc4s3)c2cc1OC`, for which the GI50 in the test with CAKI-1 is 33.3 µM (inactive); with CCRF-CEM, 12.1 µM (inactive); in the test on EKVX it was 25 µM (inactive); with HCT-116, 30.2 µM (inactive); with HCT-15, 36.3 µM; in the test with HT-29, 27.5 µM (inactive). In addition, the GI50 was 40.6 µM (inactive) in the test on Hs-578T; 31.6 µM (inactive) in the test with MCF7; 36.8 µM (inactive) with NCI-H226; 39.8 µM (inactive) in the test with NCI/ADR-RES; 27.4 µM (inactive) in the test with OVCAR-4; 26.1 µM (inactive) in the test on PC-3. Besides, the GI50 in the test on RXF 393 is 16.6 µM (inactive); with SF-268 it was 35.3 µM (inactive); in the test on SK-OV-3, 28.1 µM (inactive); with TK-10 it was 28.3 µM (inactive); with UACC-257 it was 32.4 µM (inactive); with UACC-62 it was 16.9 µM (inactive).
In the case of `O=C(OCc1ccccc1)N1CCNCCNCCN(C(=O)OCc2ccccc2)CCNCC1`, the GI50 is 20 µM (inactive) with CAKI-1; 18.8 µM (inactive) in the test with CCRF-CEM; 24 µM (inactive) in the test on EKVX; 14 µM (inactive) with HCT-116; 18.7 µM in the test on HCT-15; 8.2 µM (inactive) with HL-60. Besides, the GI50 in the test with HT-29 was 12.1 µM (inactive); with Hs-578T, 19.1 µM (inactive); in the test with MCF7 it was 17.8 µM (inactive); with NCI-H226, > 100 µM (inactive); with NCI/ADR-RES, 50.5 µM (inactive); in the test on OVCAR-4 it was 41 µM (inactive). The GI50 in the test with PC-3 is 41.6 µM (inactive); in the test on SK-OV-3 it was > 100 µM (inactive); with TK-10, 24.8 µM (inactive); in the test on UACC-257, 16.5 µM (inactive); with UACC-62, 17.7 µM (inactive).
For `OC1CCCN(C2(c3cccs3)CCCCC2)C1` (configuration not stated), the GI50 in the test with CAKI-1 is > 100 µM (inactive); with EKVX, > 100 µM (inactive); in the test with HCT-116, > 100 µM (inactive); in the test on HCT-15, over 100 µM; in the test with HL-60, 74.6 µM (inactive); in the test with HT-29 it was > 100 µM (inactive). Also, the GI50 in the test on Hs-578T, with MCF7, in the test with NCI/ADR-RES, with OVCAR-4, in the test with PC-3 and in the test with RXF 393 was > 100 µM (inactive) in each case. For the same compound, the GI50 with SF-268, in the test on SK-OV-3, in the test on TK-10, in the test on UACC-257 and with UACC-62 was > 100 µM (inactive) each time.
On to `Cn1c(=O)n(-c2c3ccccc3c(Cl)c3ccccc23)n(C(C)(C)C)c1=O`, for which the GI50 in the test with CAKI-1 was > 100 µM (inactive); with CCRF-CEM, > 100 µM (inactive); in the test with EKVX, > 100 µM (inactive); in the test with HCT-116, > 100 µM (inactive); with HCT-15, over 100 µM; with HL-60, > 100 µM (inactive). Moreover, the GI50 with HT-29 was > 100 µM (inactive); in the test with Hs-578T, 41.3 µM (inactive); with MCF7, > 100 µM (inactive); in the test on NCI-H226, 44.6 µM (inactive); in the test on NCI/ADR-RES, > 100 µM (inactive); in the test with PC-3, > 100 µM (inactive). In addition, the GI50 in the test on SF-268 is 59.8 µM (inactive); with SK-OV-3, > 100 µM (inactive); with TK-10, > 100 µM (inactive); in the test on UACC-257 it was > 100 µM (inactive); with UACC-62, > 100 µM (inactive).
For `COc1cc([N+](=O)[O-])c(S(=O)(=O)O)cc1NS(=O)(=O)c1ccc(C)cc1`, the GI50 in the test on CAKI-1 is > 100 µM (inactive); in the test with CCRF-CEM it was > 100 µM (inactive); in the test with EKVX, > 100 µM (inactive); in the test with HCT-116 it was > 100 µM (inactive); in the test on HCT-15, over 100 µM; with HL-60, > 100 µM (inactive). Moreover, the GI50 in the test on HT-29, in the test with Hs-578T, in the test on MCF7, with NCI-H226, in the test on NCI/ADR-RES and in the test on OVCAR-4 was > 100 µM (inactive) throughout. For the same compound, the GI50 in the test with PC-3, in the test with SF-268, with SK-OV-3, in the test with TK-10, with UACC-257 and in the test on UACC-62 was > 100 µM (inactive) each time.
